One experiment addresses Ras•GDP / Sos (Homo sapiens (Human), UniProt P01112+P62937, M72C). As to the kind of experiment: HRAS/CypA ternary complex and Sos-mediated nucleotide exchange. It is filed as biochemical. The protocol: FIG. 56. […] Assay conditions: 1 μM Ras•GDP, 1 μM Mant-GDP, 20 mM EPES 7.5, 150 mM NaCl, 10 mM EDTA or 1 μM Sos. 95A is synonymous to ZZY06-031.
Another experiment relates to Ras•Raf. As to the kind of experiment: Ras•Raf binding pulldown. The note with it: 100 nM KRAS. The procedure: FIG. 57. […] Pulldown conditions: 100 nM KRAS, 50 μg/mL BSA, 20 mM HEPES 7.5, 150 mM NaCl, 5 mM MgCl2, 1 mM […], 1% NP-40. GppNHp loaded proteins were prepared by EDTA-mediated nucleotide exchange.

Take `C=CC(=O)Nc1cc(Cl)cc(NC(=O)c2cnn(-c3ccc(OCC(=O)N4CCN(C(=O)CCC[C@@H](C)[C@@H](O)[C@H]5C(=O)N[C@@H](CC)C(=O)N(C)CC(=O)N(C)[C@@H](CC(C)C)C(=O)N[C@@H](C(C)C)C(=O)N(C)[C@@H](CC(C)C)C(=O)N[C@@H](C)C(=O)N[C@H](C)C(=O)N(C)[C@@H](CC(C)C)C(=O)N(C)[C@@H](CC(C)C)C(=O)N(C)[C@@H](C(C)C)C(=O)N5C)CC4)cc3)c2C(F)(F)F)c1` [ZZY08-058]: on Ras•GDP / Sos, the “ternary complex formation with HRAS and CypA” value is listed as “forms a ternary complex”. The Sos-mediated nucleotide exchange result at Ras•GDP / Sos (1 μM Ras•GDP, 1 μM Mant-GDP, 10 mM EDTA or 1 μM Sos) is on record as “inhibits Sos-mediated nucleotide exchange”. Moreover, in the experiment on Ras•Raf, the “Ras•Raf binding of HRAS•CypA•compound ternary complex” value is “does not seem to impair Ras•Raf binding”.

The record behind these values is patent US12558356B2, “Immunophilin binding agents and uses thereof” (The Regents of the University of California, priority 2019, dated 2026).
